Measured values as given in patent US20210115018A1, “PIPERIDINE COMPOUNDS AS COVALENT MENIN INHIBITORS” (THE REGENTS OF THE UNIVERSITY OF MICHIGAN, priority 2018, published 2021).

Test system: MV4-11
Experiment: 7-day proliferation assay (WST-8), cell growth inhibition
Format: cell-based
Conditions: Homo sapiens, MV4-11, 168 h, MV4-11 cells, 7 days
Protocol: The effect of representative Compounds of the Disclosure on cell viability was determined in a 7-day proliferation assay. Cells were maintained in the appropriate culture medium with 10% FBS at 37° C. and an atmosphere of 5% CO2.
Cells were seeded in 96-well flat bottom (Corning COSTAR, Corning, NY, cat#3595) at a density of 2,000-3,000 cells/well in 100 μl of culture medium. Compounds were serially diluted in the appropriate medium, and […] the diluted compounds were added to the appropriate wells of the cell plate. After the addition of compounds, the cells were incubated at 37° C. in an atmosphere of 5% CO2 for 7 days. Cell viability was determined using the WST (2-(2-methoxy-4-nitrophenyl)-3-(4-nitrophenyl)-5-(2,4-disulfophenyl)-2H-tetrazolium, monosodium salt) Cell Counting-8 Kit (Dojindo Molecular Technologies, Inc., Rockville, Md.) according to the manufacturers' instructions.
WST-8 reagent was added to each well at a final concentration of 10% (v/v), and then the plates were incubated at 37° C. for 1-2 hours for color development. The absorbance was measured at 450 nm using a SPECTRAmax PLUS plate reader (Molecular Devices, Sunnyvale, Calif.). The readings were normalized to the DMSO-treated cells and the half maximal inhibitory concentration (IC50) was calculated by nonlinear regression (four parameters sigmoid fitted with variable slope, least squares fit, and no constraint) analysis using the GraphPad Prism 5 software (GraphPad Software, La Jolla, Calif.).

| Structure (SMILES) | IC50 [nM] |
| --- | --- |
| C=CC(=O)Nc1cccc(S(=O)(=O)c2ccc(N3CC(CN4CCC([C@@](CN5CCC5)(c5cccc(F)c5)[C@H]5CCC[C@@H]5NC(=O)OC)CC4)C3)c(F)c2)c1 [compound 73] | < 10 |
| C=CC(=O)Nc1cc(S(=O)(=O)c2ccc(N3CC(CN4CCC([C@@](CN5CCC5)(c5cccc(F)c5)[C@H]5CCC[C@@H]5NC(=O)OC)CC4)C3)cc2)ccc1N(C)CCN(C)C [compound 74] | < 50 |
| C=CC(=O)N(C)c1cccc(S(=O)(=O)c2ccc(N3CC(CN4CCC([C@@](CN5CCC5)(c5cccc(F)c5)[C@H]5CCC[C@@H]5NC(=O)OC)CC4)C3)cc2)c1 [compound 77] | < 50 |
| C=CC(=O)Nc1cc(C(F)(F)F)cc(S(=O)(=O)c2ccc(N3CC(CN4CCC([C@@](CN5CCC5)(c5cccc(F)c5)[C@H]5CCC[C@@H]5NC(=O)OC)CC4)C3)cc2)c1 [compound 78] | < 10 |
| C=CC(=O)Nc1cncc(S(=O)(=O)c2ccc(N3CC(CN4CCC([C@@](CN5CCC5)(c5cccc(F)c5)[C@H]5CCC[C@@H]5NC(=O)OC)CC4)C3)cc2)c1 [compound 79] | < 50 |
| C=CC(=O)Nc1cc(S(=O)(=O)c2ccc(N3CC(CN4CCC([C@@](CN5CCC5)(c5cccc(F)c5)[C@H]5CCC[C@@H]5NC(=O)OC)CC4)C3)cc2)ccc1C(F)(F)F [compound 81] | < 50 |
| C=CC(=O)Nc1cncc(S(=O)(=O)c2ccc(N3CC(F)(CN4CCC([C@@](CN5CCC5)(c5cccc(F)c5)[C@H]5CCC[C@@H]5NC(=O)OC)CC4)C3)c(F)c2)c1 [compound 84] | < 50 |
| C=CC(=O)Nc1ccnc(S(=O)(=O)c2ccc(N3CC(F)(CN4CCC([C@@](CN5CCC5)(c5cccc(F)c5)[C@H]5CCC[C@@H]5NC(=O)OC)CC4)C3)c(F)c2)c1 [compound 87] | < 500 |
| C=CC(=O)Nc1cc(F)cc(S(=O)(=O)c2ccc(N3CC(F)(CN4CCC([C@@](CN5CCC5)(c5cccc(F)c5)[C@H]5CCC[C@@H]5NC(=O)OC)CC4)C3)c(F)c2)c1 [compound 89] | < 50 |
| C=CC(=O)Nc1cc(S(=O)(=O)c2ccc(N3CC(F)(CN4CCC([C@@](CN5CCC5)(c5cccc(F)c5)[C@H]5CCC[C@@H]5NC(=O)OC)CC4)C3)c(F)c2)ccc1F [compound 90] | < 50 |

Continued, values first:

| IC50 [nM] | Structure (SMILES) |
| --- | --- |
| < 50 | C=CC(=O)N1CC(S(=O)(=O)c2ccc(N3CC(F)(CN4CCC([C@@](CN5CCC5)(c5cccc(F)c5)[C@H]5CCC[C@@H]5NC(=O)OC)CC4)C3)c(F)c2)C1 [compound 93] |
| < 10 | COC(=O)N[C@H]1CCC[C@@H]1[C@](CN1CCC1)(c1cccc(F)c1)C1CCN(CC2(F)CN(c3ccc(S(=O)(=O)C4CN(C(=O)/C=C/CN(C)C)C4)cc3F)C2)CC1 [compound 96] |
| < 10 | C=CC(=O)Nc1cc(S(=O)(=O)c2ccc(N3CC(F)(CN4CCC([C@@](CN5CCC5)(c5cccc(F)c5)[C@H]5CCC[C@@H]5NC(=O)OC)CC4)C3)c(F)c2)ccc1C [compound 97] |
| < 10 | COC(=O)N[C@H]1CCC[C@@H]1[C@](CN1CCC1)(c1cccc(F)c1)C1CCN(CC2CN(c3ccc(S(=O)(=O)C4CN(C(=O)/C=C/CN5CCC(O)CC5)C4)cc3)C2)CC1 [compound 98] |
| < 500 | C#CC(=O)N1CC(S(=O)(=O)c2ccc(N3CC(F)(CN4CCC([C@@](CN5CCC5)(c5cccc(F)c5)[C@H]5CCC[C@@H]5NC(=O)OC)CC4)C3)c(F)c2)C1 [compound 101] |
| < 100 | C=CC(=O)Nc1cccc(S(=O)(=O)c2ccc(N3CC[C@@H](CN4CCC([C@@](CN5CCC5)(c5cccc(F)c5)[C@H]5CCC[C@@H]5NC(=O)OC)CC4)C3)cc2)c1 [compound 104] |
| < 50 | C=CC(=O)N1CCCC(S(=O)(=O)c2ccc(N3CC(F)(CN4CCC([C@@](CN5CCC5)(c5cccc(F)c5)[C@H]5CCC[C@@H]5NC(=O)OC)CC4)C3)c(F)c2)C1 (stereo partly drawn) [compound 105] |

Same assay, conditions: MV4-11 cells, 7 days

| IC50 [nM] | Structure (SMILES) |
| --- | --- |
| < 50 | C=CC(=O)N1CCCC(S(=O)(=O)c2ccc(N3CC(F)(CN4CCC([C@@](CN5CCC5)(c5cccc(F)c5)[C@H]5CCC[C@@H]5NC(=O)OC)CC4)C3)c(F)c2)C1 (stereo partly drawn) [compound 106] |
